{"source": "paper PMC11079024", "about": "“Identification of a family of species-selective complex I inhibitors as potential anthelmintics” (Nature Communications, 2024)", "key": {"[1]": {"molecular_target": "B. taurus (heart) complex I (Bos taurus, UniProt P03887+P17694+P42026)", "sequence (P03887 whole entry)": "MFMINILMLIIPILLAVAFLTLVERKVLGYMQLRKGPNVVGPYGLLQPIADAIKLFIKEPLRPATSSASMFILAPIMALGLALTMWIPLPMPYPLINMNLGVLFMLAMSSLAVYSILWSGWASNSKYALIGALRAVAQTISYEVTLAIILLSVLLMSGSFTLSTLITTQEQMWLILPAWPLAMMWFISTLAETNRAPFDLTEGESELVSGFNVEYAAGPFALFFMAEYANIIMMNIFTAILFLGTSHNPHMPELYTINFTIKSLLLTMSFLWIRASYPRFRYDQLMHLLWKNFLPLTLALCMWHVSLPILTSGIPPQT", "sequence (P17694 34-463)": "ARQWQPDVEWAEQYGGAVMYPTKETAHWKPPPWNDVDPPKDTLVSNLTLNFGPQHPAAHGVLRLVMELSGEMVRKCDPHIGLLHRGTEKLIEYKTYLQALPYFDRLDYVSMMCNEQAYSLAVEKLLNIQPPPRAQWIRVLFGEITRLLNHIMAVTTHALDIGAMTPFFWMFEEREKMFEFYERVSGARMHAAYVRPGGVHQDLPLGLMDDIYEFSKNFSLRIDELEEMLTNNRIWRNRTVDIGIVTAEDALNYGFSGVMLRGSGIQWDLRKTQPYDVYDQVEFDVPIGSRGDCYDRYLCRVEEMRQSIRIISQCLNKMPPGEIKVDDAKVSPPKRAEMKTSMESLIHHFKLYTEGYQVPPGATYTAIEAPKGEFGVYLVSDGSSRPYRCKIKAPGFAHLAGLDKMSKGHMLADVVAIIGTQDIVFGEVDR", "sequence (P42026 38-216)": "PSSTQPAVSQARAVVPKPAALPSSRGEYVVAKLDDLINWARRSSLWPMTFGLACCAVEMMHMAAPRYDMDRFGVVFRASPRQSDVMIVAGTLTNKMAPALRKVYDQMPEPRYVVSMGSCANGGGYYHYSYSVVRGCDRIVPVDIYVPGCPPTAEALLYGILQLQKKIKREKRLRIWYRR", "assay": "biochemical", "assay_type": "biochemical", "method_in_brief": "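Complex I activity followed as DCIP reduction (600 nm, 30 s reads, 15 min) with 80 μM NADH and 60 μM decylubiquinone in 25 mM KPi pH 7.5 containing 2 μM antimycin A and 2 mM KCN. Freeze-thawed mouse or bovine heart mitochondria at 0.2 mg/mL; initial-rate percent of solvent control, single-point 100 μM or dose-response.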"}, "[2]": {"molecular_target": "C. elegans (N2) complex I (NADH:ubiquinone oxidoreductase) (Caenorhabditis elegans, UniProt P24887+Q93873+Q94360)", "sequence (Q94360 17-199)": "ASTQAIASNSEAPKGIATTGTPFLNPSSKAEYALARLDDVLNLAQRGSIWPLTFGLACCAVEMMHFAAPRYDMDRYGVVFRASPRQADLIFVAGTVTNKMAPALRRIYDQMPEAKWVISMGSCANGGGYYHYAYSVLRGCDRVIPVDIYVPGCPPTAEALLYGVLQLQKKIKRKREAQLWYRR", "sequence (P24887 whole entry)": "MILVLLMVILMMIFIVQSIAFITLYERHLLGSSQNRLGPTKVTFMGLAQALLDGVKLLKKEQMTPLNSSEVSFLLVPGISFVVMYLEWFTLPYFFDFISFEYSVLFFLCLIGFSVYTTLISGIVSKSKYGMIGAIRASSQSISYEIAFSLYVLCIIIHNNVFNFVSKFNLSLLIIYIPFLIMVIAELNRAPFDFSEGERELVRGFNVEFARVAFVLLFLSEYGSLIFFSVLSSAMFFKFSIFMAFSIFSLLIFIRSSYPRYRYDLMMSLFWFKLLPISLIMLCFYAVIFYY", "sequence (Q93873 31-482)": "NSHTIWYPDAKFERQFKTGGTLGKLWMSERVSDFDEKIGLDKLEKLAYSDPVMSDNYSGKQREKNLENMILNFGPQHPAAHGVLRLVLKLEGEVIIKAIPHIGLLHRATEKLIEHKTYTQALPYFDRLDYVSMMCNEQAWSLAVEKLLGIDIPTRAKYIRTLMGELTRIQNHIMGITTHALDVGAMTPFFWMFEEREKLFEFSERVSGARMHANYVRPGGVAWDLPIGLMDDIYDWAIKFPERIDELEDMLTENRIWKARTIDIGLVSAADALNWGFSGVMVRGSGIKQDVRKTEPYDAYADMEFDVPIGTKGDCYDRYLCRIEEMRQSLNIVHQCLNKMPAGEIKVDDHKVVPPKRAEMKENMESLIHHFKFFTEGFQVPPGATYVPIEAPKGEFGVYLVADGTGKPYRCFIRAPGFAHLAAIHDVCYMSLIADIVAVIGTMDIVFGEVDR", "assay": "biochemical", "assay_type": "biochemical", "conditions": "wild-type C. elegans mitochondria, read-out: percent (%) in vitro complex I activity relative to solvent control", "method_in_brief": "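Mitochondria, 0.2 mg/mL protein, freeze-thawed three times, assayed in 25 mM KPi pH 7.5 with BSA, 80 μM NADH, 60 μM decylubiquinone, 160 μM DCIP, antimycin A and KCN. Rate from initial linear slope of A600 over 15 min. % of solvent control.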"}, "[3]": {"conditions": "B. taurus, Mean of replicates, read-out: Complex I activity, dose-response data"}, "[4]": {"conditions": "B. taurus, individual replicates (Rep), read-out: Complex I activity, dose-response data"}}, "note": "Values joined by “and” are separate entries in the source; they are usually repeats but may differ in a detail not shown here. Equal entries are not always repeated. Where two headings read alike, the source gives them in different places."}
{"smiles": "COc1cc2c(cc1OC)C(c1ccc(-c3ccc(Cl)c(Cl)c3)o1)=NCC2", "note": "[NPD3577]", "values": [{"measurement": "activity at 0.0001 µM", "setting": "[1]; B. taurus, dose 0.0001 µM, Mean of replicates, read-out: Complex I activity, dose-response data", "result": 105, "unit": "%"}, {"measurement": "Complex I activity, dose-response data", "setting": "[1]; B. taurus, dose 0.0001 µM, individual replicates (Rep)", "result": "103.121 and 101.731 and 110.652"}, {"measurement": "activity at 0.0001 µM", "setting": "[1]; B. taurus, dose 0.0001 µM, individual replicates (Rep), read-out: Complex I activity, dose-response data", "result": 106, "unit": "%"}, {"measurement": "activity at 0.0005 µM", "setting": "[1]; [3]", "result": 100, "unit": "%"}, {"measurement": "activity at 0.0005 µM", "setting": "[1]; [4]", "result": 100, "unit": "%"}, {"measurement": "activity at 0.001 µM", "setting": "[1]; B. taurus, dose 0.001 µM, Mean of replicates, read-out: Complex I activity, dose-response data", "result": 106, "unit": "%"}, {"measurement": "Complex I activity, dose-response data", "setting": "[1]; B. taurus, dose 0.001 µM, individual replicates (Rep)", "result": "115.208 and 104.399 and 94.945 and 110.770"}, {"measurement": "activity at 0.0025 µM", "setting": "[1]; B. taurus, dose 0.0025 µM, Mean of replicates, read-out: Complex I activity, dose-response data", "result": 109, "unit": "%"}, {"measurement": "Complex I activity, dose-response data", "setting": "[1]; B. taurus, dose 0.0025 µM, individual replicates (Rep)", "result": "105.176 and 104.207 and 109.459"}, {"measurement": "activity at 0.0025 µM", "setting": "[1]; B. taurus, dose 0.0025 µM, individual replicates (Rep), read-out: Complex I activity, dose-response data", "result": 117, "unit": "%"}, {"measurement": "activity at 0.005 µM", "setting": "[1]; B. taurus, dose 0.005 µM, Mean of replicates, read-out: Complex I activity, dose-response data", "result": 109, "unit": "%"}, {"measurement": "Complex I activity, dose-response data", "setting": "[1]; B. taurus, dose 0.005 µM, individual replicates (Rep)", "result": "109.688 and 97.845 and 112.943"}, {"measurement": "activity at 0.005 µM", "setting": "[1]; B. taurus, dose 0.005 µM, individual replicates (Rep), read-out: Complex I activity, dose-response data", "result": 116, "unit": "%"}, {"measurement": "activity at 0.013 µM", "setting": "[1]; B. taurus, dose 0.013 µM, Mean of replicates, read-out: Complex I activity, dose-response data", "result": 106, "unit": "%"}, {"measurement": "Complex I activity, dose-response data", "setting": "[1]; B. taurus, dose 0.013 µM, individual replicates (Rep)", "result": "116.009 and 85.825 and 105.823 and 114.478"}, {"measurement": "activity at 0.025 µM", "setting": "[1]; B. taurus, dose 0.025 µM, Mean of replicates, read-out: Complex I activity, dose-response data", "result": 115, "unit": "%"}, {"measurement": "Complex I activity, dose-response data", "setting": "[1]; B. taurus, dose 0.025 µM, individual replicates (Rep)", "result": "117.057 and 109.262 and 110.097"}, {"measurement": "activity at 0.025 µM", "setting": "[1]; B. taurus, dose 0.025 µM, individual replicates (Rep), read-out: Complex I activity, dose-response data", "result": 124, "unit": "%"}, {"measurement": "activity at 0.063 µM", "setting": "[1]; B. taurus, dose 0.063 µM, Mean of replicates, read-out: Complex I activity, dose-response data", "result": 111, "unit": "%"}, {"measurement": "Complex I activity, dose-response data", "setting": "[1]; B. taurus, dose 0.063 µM, individual replicates (Rep)", "result": "116.393 and 107.485 and 112.565"}, {"measurement": "activity at 0.063 µM", "setting": "[1]; B. taurus, dose 0.063 µM, individual replicates (Rep), read-out: Complex I activity, dose-response data", "result": 107, "unit": "%"}, {"measurement": "activity at 0.125 µM", "setting": "[1]; B. taurus, dose 0.125 µM, Mean of replicates, read-out: Complex I activity, dose-response data", "result": 106, "unit": "%"}, {"measurement": "Complex I activity, dose-response data", "setting": "[1]; B. taurus, dose 0.125 µM, individual replicates (Rep)", "result": "115.491 and 103.072 and 105.491"}, {"measurement": "activity at 0.125 µM", "setting": "[1]; B. taurus, dose 0.125 µM, individual replicates (Rep), read-out: Complex I activity, dose-response data", "result": 100, "unit": "%"}, {"measurement": "activity at 0.313 µM", "setting": "[1]; B. taurus, dose 0.313 µM, Mean of replicates, read-out: Complex I activity, dose-response data", "result": 109, "unit": "%"}, {"measurement": "Complex I activity, dose-response data", "setting": "[1]; B. taurus, dose 0.313 µM, individual replicates (Rep)", "result": "109.249 and 104.276 and 103.070"}, {"measurement": "activity at 0.313 µM", "setting": "[1]; B. taurus, dose 0.313 µM, individual replicates (Rep), read-out: Complex I activity, dose-response data", "result": 118, "unit": "%"}, {"measurement": "activity at 0.625 µM", "setting": "[1]; B. taurus, dose 0.625 µM, Mean of replicates, read-out: Complex I activity, dose-response data", "result": 99, "unit": "%"}, {"measurement": "Complex I activity, dose-response data", "setting": "[1]; B. taurus, dose 0.625 µM, individual replicates (Rep)", "result": "89.823 and 107.117 and 107.828"}, {"measurement": "activity at 0.625 µM", "setting": "[1]; B. taurus, dose 0.625 µM, individual replicates (Rep), read-out: Complex I activity, dose-response data", "result": 91.2, "unit": "%"}, {"measurement": "activity at 1.5 µM", "setting": "[1]; [3]", "result": 100, "unit": "%"}, {"measurement": "activity at 1.5 µM", "setting": "[1]; [4]", "result": 100, "unit": "%"}, {"measurement": "activity at 3 µM", "setting": "[1]; B. taurus, dose 3 µM, Mean of replicates, read-out: Complex I activity, dose-response data", "result": 95.5, "unit": "%"}, {"measurement": "Complex I activity, dose-response data", "setting": "[1]; B. taurus, dose 3 µM, individual replicates (Rep)", "result": "93.418 and 99.797 and 99.095"}, {"measurement": "activity at 3 µM", "setting": "[1]; B. taurus, dose 3 µM, individual replicates (Rep), read-out: Complex I activity, dose-response data", "result": 89.6, "unit": "%"}, {"measurement": "activity at 15 µM", "setting": "[1]; B. taurus, dose 15 µM, Mean of replicates, read-out: Complex I activity, dose-response data", "result": 43.4, "unit": "%"}, {"measurement": "Complex I activity, dose-response data", "setting": "[1]; B. taurus, dose 15 µM, individual replicates (Rep)", "result": "55.501 and 46.406 and 43.941 and 27.922"}, {"measurement": "activity at 37.5 µM", "setting": "[1]; B. taurus, dose 37.5 µM, Mean of replicates, read-out: Complex I activity, dose-response data", "result": 26.1, "unit": "%"}, {"measurement": "Complex I activity, dose-response data", "setting": "[1]; B. taurus, dose 37.5 µM, individual replicates (Rep)", "result": "16.844 and 31.768 and 25.172"}, {"measurement": "activity at 37.5 µM", "setting": "[1]; B. taurus, dose 37.5 µM, individual replicates (Rep), read-out: Complex I activity, dose-response data", "result": 30.8, "unit": "%"}, {"measurement": "activity at 75 µM", "setting": "[1]; B. taurus, dose 75 µM, Mean of replicates, read-out: Complex I activity, dose-response data", "result": 23.8, "unit": "%"}, {"measurement": "Complex I activity, dose-response data", "setting": "[1]; B. taurus, dose 75 µM, individual replicates (Rep)", "result": "15.504 and 26.993 and 22.808"}, {"measurement": "activity at 75 µM", "setting": "[1]; B. taurus, dose 75 µM, individual replicates (Rep), read-out: Complex I activity, dose-response data", "result": 30, "unit": "%"}, {"measurement": "IC50", "setting": "[1]; heart mitochondria, read-out: B. taurus Complex I IC50", "result": 9.49, "unit": "µM"}, {"measurement": "remaining activity at 0.125 µM", "setting": "[2]; mean of replicates", "result": 96.8, "unit": "%"}, {"measurement": "remaining activity at 0.125 µM", "setting": "[2]; single replicate", "result": 96.7, "unit": "%"}, {"measurement": "remaining activity at 0.313 µM", "setting": "[2]; mean of replicates", "result": 92.4, "unit": "%"}, {"measurement": "remaining activity at 0.313 µM", "setting": "[2]; single replicate", "result": 92.5, "unit": "%"}, {"measurement": "remaining activity at 0.625 µM", "setting": "[2]; mean of replicates", "result": 100, "unit": "%"}, {"measurement": "remaining activity at 0.625 µM", "setting": "[2]; single replicate", "result": 100, "unit": "%"}, {"measurement": "remaining activity at 1.5 µM", "setting": "[2]; mean of replicates", "result": 94.3, "unit": "%"}, {"measurement": "remaining activity at 1.5 µM", "setting": "[2]; single replicate", "result": 96.2, "unit": "%"}, {"measurement": "remaining activity at 3 µM", "setting": "[2]; mean of replicates", "result": 92.6, "unit": "%"}, {"measurement": "remaining activity at 3 µM", "setting": "[2]; single replicate", "result": 93.9, "unit": "%"}]}
